Earlier results, collected in US5693668A, “Acetylcholinesterase inhibitors” (priority 1989, dated 1997).

Details: Bronaugh and Stewart, J. Pharm. Sci. 1984; cited from earlier work

Substance: polyethylene glycol 20 Oleyl ether [PEG 20 oleyl ether]
- effect on integrity or permeation characteristics of the skin: not found to affect the integrity or the permeation characteristics of the skin
